Source: patent US8143261B2, “Thiazolo (4,5-D) pyrimidine compounds” (AstraZeneca AB, priority 1999, dated 2012)

SMILES | melting point
COCC(CO)Nc1nc(SCc2cccc(F)c2F)nc2[nH]c(=O)sc12.[Na] (racemic) | > 250 °C
CC(COCCO)Nc1nc(SCc2cccc(F)c2F)nc2[nH]c(=O)sc12 (racemic) [Example 11, (+/−)-5-[[(2,3-difluorophenyl)methyl]thio]-7-[[2-(2-hydroxyethoxy)-1-methylethyl]amino]thiazolo[4,5-d]pyrimidin-2(3H)-one] | 221 to 222 °C
CC(C)(CO)Nc1nc(SCc2ccccc2)nc2[nH]c(=O)sc12 [Example 1, 7-[(2-Hydroxy-1,1-dimethylethyl)amino]-5-[(phenylmethyl)thio]thiazolo[4,5-d]pyrimidin-2(3H)-one] | 207 to 208 °C
O=c1[nH]c2nc(SCc3cccc(F)c3F)nc(NC(CO)CO)c2s1 [Example 7, 5-[[(2,3-difluorophenyl)methyl]thio]-7-[[2-hydroxy-1-(hydroxymethyl)ethyl]amino]thiazolo[4,5-d]pyrimidin-2(3H)-one] | 178 to 179 °C
NCCNc1nc(SCc2cccc(F)c2F)nc2[nH]c(=O)sc12 [Example 8, 7-[(2-aminoethyl)amino]-5-[[(2,3-difluorophenyl)methyl]thio]thiazolo[4,5-d]pyrimidin-2(3H)-one] | 215 to 216 °C
O=c1[nH]c2nc(SCc3cccc(F)c3F)nc(NCCO)c2s1 [Example 9, 5-[[(2,3-difluorophenyl)methyl]thio]-7-[(2-hydroxyethyl)amino]thiazolo[4,5-d]pyrimidin-2(3H)-one] | 217 to 219 °C
CS(=O)(=O)NCCNc1nc(SCc2cccc(F)c2F)nc2[nH]c(=O)sc12 [Example 10, N-[2-[[5-[[(2,3-difluorophenyl)methyl]thio]-2,3-dihydro-2-oxothiazolo[4,5-d]pyrimidin-7-yl]amino]ethyl]methanesulfonamide] | 225 to 226 °C

The remaining lines, values ahead:

melting point | SMILES
270 °C (dec.) | O=c1[nH]c2nc(SCc3cccc(F)c3F)nc(N[C@@H]3CNC[C@H]3O)c2s1 [Example 18, 5-[[(2,3-Difluorophenyl)methyl]thio]-7-[[(3R,4R)-4-hydroxypyrrolidin-3-yl]amino]-thiazolo[4,5-d]pyrimidin-2(3H)-one]
239 to 243 °C | Cc1nc(CSc2nc(NC(CO)CO)c3sc(=O)[nH]c3n2)cs1 [Example 21, 7-[[2-Hydroxy-1-(hydroxymethyl)ethyl]amino]-5-[[(2-methyl-4-thiazolyl)methyl]thio]thiazolo[4,5-d]pyrimidin-2(3H)-one]
231 to 232 °C | Cc1nc(CSc2nc(NC(C)(C)CO)c3sc(=O)[nH]c3n2)cs1 [Example 22, 7-[(2-Hydroxy-1,1-dimethylethyl)amino]-5-[[(2-methyl-4-thiazolyl)methyl]thio]thiazolo[4,5-d]pyrimidin-2(3H)-one]
241 to 243 °C | C[C@H](CN)Nc1nc(SCc2cccc(Cl)c2F)nc2[nH]c(=O)sc12 [Example 25, 7-[[(1R)-2-Amino-1-methylethyl]amino]-5-[[(3-chloro-2-fluorophenyl)methyl]thio]thiazolo[4,5-d]pyrimidin-2(3H)-one]
145 to 151 °C | NC(=O)[C@H](CO)Nc1nc(SCc2cccc(F)c2F)nc2[nH]c(=O)sc12 [Example 26, (2S)-2-[[5-[[(2,3-Difluorophenyl)methyl]thio]-2,3-dihydro-2-oxothiazolo[4,5-d]pyrimidin-7-yl]amino]-3-hydroxy-propanamide]
